Source: PMC12217109, “Development of novel benzamide class I selective lysine deacetylase inhibitors as potent anticancer agents” (Journal of Enzyme Inhibition and Medicinal Chemistry, 2025)

Experiments:
[1] = tested on: MCF7 breast cancer cell line; experiment: MTT cellular viability assay, MCF7; type: cell-based; settings: Homo sapiens, 96 h
Description: The human A2780 ovarian (#93112519) and MCF-7 breast (#86012803) cancer cell lines were obtained from the European Cell Culture Collection (ECACC; Salisbury, UK). The human cardiac ventricular AC16 cell line (#SCC109) was obtained from Merck/Millipore (UK). The A2780 and MCF-7 cell lines were maintained in RPMI-1640 medium and the AC16 cell line was maintained in DMEM/F12 medium. Culture medium of all three cell lines was supplemented with 10% heat-inactivated foetal bovine serum (FBS) and 2 mM L-glutamine, with the cells maintained in a humidified 5% CO2 atmosphere at 37 °C. The media was changed every 72h and the cells passaged via trypsinisation (Trypsin EDTA, 0.25%) before reaching confluency.
Cytotoxicity of each compound against the cell lines was assessed using the MTT assay. Cells were seeded in three replicates into 96-well plates at a density of 2 × 10^3/well for 24h to facilitate cell attachment. Media was replaced with that containing either test compound (0–10µM) for A2780 and MCF7 cell lines, single concentration (10 µM) test compound for AC16 cell line, or drug vehicle (dimethyl sulphoxide; DMSO) and the cells incubated for a further 96 h at 37 °C in a humidified 5% CO2 atmosphere. […] Chemosensitivity was thereafter assessed using a standard 3-[4, 5-dimethylthiazolyl]-2,5-diphenyltetrazolium bromide (MTT) assay, with the optical density determined at 540 nm as an indicator of cellular viability.

HeLa nuclear KDACs = tested on: HeLa nuclear KDACs; set-up: method as in Beckers et al.[46]; settings: ref Beckers et al.[46]; read-out: HDAC Inhibition IC50; cited from earlier work
HDAC11 = HDAC11 (Homo sapiens, UniProt Q96DB2); set-up: method as in PMID 32608981; settings: read-out: HDAC11 IC50; compiled data, ref [13]; cited from earlier work
HDAC11, sequence (Q96DB2 whole entry): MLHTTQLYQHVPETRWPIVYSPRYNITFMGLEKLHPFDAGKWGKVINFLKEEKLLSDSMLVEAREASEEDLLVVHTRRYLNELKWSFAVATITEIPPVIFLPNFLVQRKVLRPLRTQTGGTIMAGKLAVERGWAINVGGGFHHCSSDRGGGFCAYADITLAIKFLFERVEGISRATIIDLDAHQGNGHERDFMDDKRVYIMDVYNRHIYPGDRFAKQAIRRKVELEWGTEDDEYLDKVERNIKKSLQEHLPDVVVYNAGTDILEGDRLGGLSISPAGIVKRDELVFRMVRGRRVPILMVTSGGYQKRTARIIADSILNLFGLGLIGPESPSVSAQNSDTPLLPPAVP

class I HDACs = tested on: class I HDACs; set-up: method as in PMID 31938461; settings: ref [91]; cited from earlier work

| Compound | IC50 [1] [µM] | IC50 (HeLa nuclear KDACs) [µM] | IC50 (HDAC11) [µM] | IC50 (class I HDACs) [µM] |
| --- | --- | --- | --- | --- |
| CC(=O)Nc1ccc(C(=O)Nc2ccccc2N)cc1 [Compound 2, Tacedinaline] | 11.6 ± 1.1 | 8.5 ± 5.4 | > 10 | – |
| Nc1cc(F)ccc1NC(=O)c1ccc(CNC(=O)/C=C/c2cccnc2)cc1 [chidamide] | – | – | – | 0.11 to 0.33 |
